From patent US10660933B2, “Compositions and methods for inhibition of bacterial infections in human endocervix” (priority 2015, dated 2020)

Tests used:
Assay type in all cases: cell-based, human
E-cadherin = E-cadherin distribution at the apical junction of Ng-inoculated polarized T84 cells; conditions: polarized T84, Ng 6 h; ML-7 10 μM, 2APB 10 μM, Y27632 10 μM
Text: Ng-induced junction disassembly requires NMII activation and Ca^2+ flux but is suppressed by Opa. The linkage between the efficiency of Ng penetration into the epithelium with Ng induced epithelial exfoliation and apical junction disruption shown here and previously implicate Ng induced junction disruption as an underlying cause of epithelial exfoliation. To test this hypothesis, we determined whether Opa expression and the MLCK and Ca^2+ inhibitors, which all inhibited Ng induced epithelial exfoliation, also prevent Ng from disrupting the apical junction. The structural integrity of the apical junction was evaluated by analyzing the distribution of E-cadherin using immunofluorescence (IFM) and 3D-CFM and quantifying the fluorescence intensity ratio (FIR) of E-cadherin at the cytoplasm to that at the apical junction. In polarized T84 cells that were not inoculated with Ng, E-cadherin staining was primarily localized at the apical junction (FIG. 4A, top panels). […]
Immunofluorescence analysis of polarized epithelial cells. […] Cells were analyzed by CFM. […] Epithelial exfoliation will be quantified using xz images as described for the tissue explants. The distribution of E-cadherin and pMLC was quantitatively analyzed by measuring the FIR at the apical junctional to the cytoplasmic area (from xy images) or at the apical to lateral surface area (from xz images) in individual cells.

polarized T84 cells = experiment: Exfoliation of polarized T84 cells treated with inhibitors alone, without Ng; conditions: no Ng inoculation, 6 h
Procedure: Polarized T84 cells were treated with inhibitors for 6 h, fixed, stained to visualize the cell nuclei, and imaged by 3D-CFM. The percentage of cell moving above the epithelial monolayer (dash lines) was determined from three independent experiments. Scale bar, 5 μm. *p≤0.05.
Immunofluorescence analysis of polarized epithelial cells. Cells were pretreated with or without NMII kinase inhibitors, Y27632 (10 μM, EMD Millipore), ML-7 (10 μM, EMD Millipore) and PIK (100 μM) or Ca2+ inhibitors, 2APB (10 μM, EMD Millipore) and BAPTA (50 μM, EMD Millipore) for 1 h, and incubated with Ng in the presence or absence of the inhibitors for 6 h. Cell were washed and fixed with 4% paraformaldehyde, permeabilized with 1% Triton X100, and stained with anti-E-cadherin (BD Bioscience), anti-pMLC (Cell Signaling Technology, Carlsbad, Calif.), anti-Ng antibodies, and DAPI for nuclei. Cells were analyzed by CFM. Images were acquired as Z-series of 0.37 μm slices, and 3D composites obtained. Epithelial exfoliation will be quantified using xz images as described for the tissue explants. The distribution of E-cadherin and pMLC was quantitatively analyzed by measuring the FIR at the apical junctional to the cytoplasmic area (from xy images) or at the apical to lateral surface area (from xz images) in individual cells.

cytoplasmic Ca2+ = experiment: Calcium imaging of Ng-inoculated polarized epithelial cells (FluoForte, Fluo-4); conditions: MS11Opa+ and MS11ΔOpa-inoculated polarized epithelial cells, 4 h; 2APB 10 μM, BAPTA 50 μM
Text: Ng inoculation induces Ca^2+-dependent redistribution of active NMII in polarized epithelial cells. A major upstream signaling molecule of MLCK is calmodulin that is activated by Ca^2+. To investigate if Ca^2+ is involved in Ng induced redistribution of active NMII, we determined if Ng inoculation would induce Ca^2+ flux in polarized epithelial cells. We used two Ca^2+ indicators, FluoForte (FIGS. 7A and 7B) and Fluo-4 (FIG. 11) to determine the cytoplasmic Ca^2+ level. Polarized T84 (FIGS. 7A and 7B, and FIG. 11A and FIG. 11B) and HEC-1-B (FIG. 11C and FIG. 11D) were incubated apically with MS11Opa+ or MS11ΔOpa for 4 h. The cells were then loaded with the fluorescent Ca^2+ indicator, and the cell membrane marked by the membrane dye CellMask. Cells were imaged using 3D-CFM (FIG. 7A, and FIGS. 11A and 11C). The mean fluorescence intensity (MFI) of the Ca^2+ dyes in individual cells was measured to estimate the cytoplasmic level of Ca^2+ (FIG. 7B, and FIGS. 11B and 11D). […]
Calcium imaging. […] To quantify the intracellular Ca^2+ level, the cytoplasmic region of individual cells was manually selected based on the CellMask staining in randomly acquired confocal images, and the mean fluorescent intensity (MFI) of Fluoforte and Fluo-4 in the cytoplasmic region was measured using the NIH ImageJ software.

Row | SMILES | punctuate cytoplasmic staining and cytoplasm:junction FIR of E-cadherin (E-cadherin) | epithelial exfoliation with inhibitors alone (polarized T84 cells) | MFI of the Ca2+ indicators (cytoplasmic Ca2+ level) (cytoplasmic Ca2+)
1 | O=S(=O)(c1cccc2c(I)cccc12)N1CCCNCC1 [ML-7] | decreased the punctuate staining of E-cadherin in the cytoplasm and the cytoplasm:junction FIR of E-cadherin to or below the control level | did not affect epithelial exfoliation | –
2 | NCCOB(c1ccccc1)c1ccccc1 [2APB] | decreased the punctuate staining of E-cadherin in the cytoplasm and the cytoplasm:junction FIR of E-cadherin to or below the control level | did not affect epithelial exfoliation | back to the basal level
